The values below come from PMC6152678, “In Vitro Comparative Study of the Inhibitory Effects of Mangiferin and Its Aglycone Norathyriol towards UDP-Glucuronosyl Transferase (UGT) Isoforms” (Molecules : A Journal of Synthetic Chemistry and Natural …, 2017).

Structures are written as SMILES. “And” between values parts separate entries of the source, which are not always exact repeats. Equal entries are not always repeated. Where two headings read alike, the source gives them in different places.

In one series the target is T1, UGT1A7 (Homo sapiens, UniProt Q9HAW7).
T1 construct: purchased BD Gentest Corp. (Woburn, MA, USA); host or cells: baculovirus-infected insect cells
T1 sequence (Q9HAW7 26-530): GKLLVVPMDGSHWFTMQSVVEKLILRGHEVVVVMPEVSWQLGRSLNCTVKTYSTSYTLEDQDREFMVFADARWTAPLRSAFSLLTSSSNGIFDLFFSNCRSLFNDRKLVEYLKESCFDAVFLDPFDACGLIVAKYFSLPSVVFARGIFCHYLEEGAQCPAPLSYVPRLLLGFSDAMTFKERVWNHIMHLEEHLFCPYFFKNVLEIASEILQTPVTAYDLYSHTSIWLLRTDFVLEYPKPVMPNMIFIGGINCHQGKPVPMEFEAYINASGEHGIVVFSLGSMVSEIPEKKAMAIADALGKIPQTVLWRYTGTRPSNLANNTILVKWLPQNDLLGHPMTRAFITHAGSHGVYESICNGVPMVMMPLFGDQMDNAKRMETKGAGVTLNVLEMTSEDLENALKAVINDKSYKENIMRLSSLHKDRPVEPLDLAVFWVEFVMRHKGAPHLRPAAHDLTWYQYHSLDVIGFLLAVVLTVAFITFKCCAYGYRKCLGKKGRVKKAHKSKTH
The series is described as follows: Inhibition of recombinant UGT-catalyzed 4-MU glucuronidation. The series is classed as biochemical. Particulars: for inhibition at 30 min, 100 µM: human, pH 7.4, probe 4-methylumbelliferone (4-MU), 30 μM, 100 μM compound, 4-MU probe substrate, negative = activation.

The conditions of series [1]: rat, cited from earlier work.
Details of series [2]: method as in PMID 26434292. The following applies: human, oral 0.9 g mangiferin, cited from earlier work.

In general, IC50 refers to the midpoint of a concentration-inhibition curve. For orientation: inhibition means the share of the control response that was lost under treatment. What is called Ki is the dissociation constant of the complex between target and ligand, obtained from inhibition or displacement. With `O=c1c2cc(O)c(O)cc2oc2cc(O)cc(O)c12` [NTR, 1,3,6,7-tetrahydroxyxanthone], the half-inhibitory concentration (IC50) on UGT1A7 (4-MU glucuronidation, Probit analysis, read-out: IC50 towards UGT1A7) was determined as 4.4 µM. The “inhibition type towards UGT1A7” value on UGT1A7 (Dixon plot and Lineweaver-Burk plot) is “competitively inhibited”. Also, the inhibition at 30 min, 100 µM on UGT1A7 was found to be 94.9%. For the same molecule, the Ki on UGT1A7 (second plot of Lineweaver-Burk slopes, read-out: inhibition constant (Ki) towards UGT1A7) worked out at 2 µM.

On to `O=c1c2cc(O)c(O)cc2oc2cc(O)c([C@@H]3O[C@H](CO)[C@@H](O)[C@H](O)[C@H]3O)c(O)c12` [MGF, 1,3,6,7-tetrahydroxyxanthone-C-2-β-D-glucoside], for which the inhibition at 30 min, 100 µM on UGT1A7 was determined as 26.7%. Further, the “maximum concentration in the plasma” value in series [1] (oral MGF 70mg/kg) was 0.19 μg/mL and 0.45 μM; in series [1] (oral MGF 120 mg/kg) it was 8.13 ± 1.96 μg/mL and 19.2 ± 4.64 μM. Also, the “concentration in plasma reached” value in series [2] (about 1 h) is 38.64 ± 6.75 ng/mL and 0.091 ± 0.016 μM. Further, the “time at which the plasma concentration was reached” value in series [2] is recorded as “about 1 h”.
